This passage reports RP-LC retention time results from the METLIN SMRT retention time set (Domingo-Almenara et al. 2019).

The nature of the data set: gradient 5% acetonitrile 3 min, to 50% in 2 min, to 85% in 15 min, held 3 min, 100 µL/min. The conditions noted are these: column: Zorbax Extend-C18 2.1 x 50 mm; eluents: water / acetonitrile, 0.1% formic acid. In outline: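 Mixtures of ~100 pure standards were chromatographed on a Zorbax Extend-C18 column (2.1 × 50 mm, 1.8 μm) at 100 μL/min using water and acetonitrile, each with 0.1% formic acid. Detection used a quadrupole time-of-flight mass spectrometer in positive and negative ionization mode, and data collection spanned 3 months. Retention time was obtained from adduct peaks picked computationally and each checked manually.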
On to `Cc1cccc(N(C)C(=O)Cn2c(=O)n(-c3ccc(F)cc3)c(=O)c3c2cc(C)n3C)c1`, for which the RP-LC retention time is 888 s. Molecule `CSc1ccc(C2c3[nH]c4ccccc4c3CCN2C(=O)c2ccco2)cc1` (stereo not given) had an RP-LC retention time of 1140 s. In the case of `COc1ccc(C2Cn3cnc(C(=O)N4CCC(C(=O)NCC5CC5)CC4)c3CO2)cc1` (stereo not given), the RP-LC retention time amounted to 649 s. `Cc1ccc(S(=O)(=O)N2CCCC(CCC(=O)NCc3ccccn3)C2)cc1` (stereo not given) came in with an RP-LC retention time of 656 s. In turn, `Cc1cc(-c2nnc(-c3ccc(F)cc3)o2)c(C)n1CC(=O)NCc1ccccc1` returned an RP-LC retention time of 920 s.

The molecule `CCCS(=O)(=O)c1nc2ccc(NS(=O)(=O)c3ccc(C(C)C)cc3)cc2s1` displayed an RP-LC retention time of 1050 s. To `Cc1cc(NC(=O)C2CCCN(c3nnc4ccccn34)C2)ccc1F` (stereo not given) belongs 717 s. To `COc1cccc(CNC(=O)C2CCN(c3nnc4cccc(C)n34)CC2)c1` belongs 642 s; to `Cc1ccccc1NC(=O)Cn1nc2n(c1=O)CCCC2`, 630 s; to `O=C(c1ccccc1)N1CCN(c2cc(-c3cccs3)[nH]n2)CC1`, 754 s. As for `CC(C)c1nnc2n1CCN(C(=O)CC1CCCCC1)C2`, the RP-LC retention time worked out at 699 s. Consider `Cc1ccc(S(=O)(=O)N2CC(c3noc(C)n3)C3(CCOCC3)C2)c(C)c1` (stereo not given), for which the RP-LC retention time turned out to be 888 s.

Take `Cc1ccc(-c2nc3cnc(Br)cn3c2Nc2ccc3c(c2)OCCO3)cc1`: the RP-LC retention time is 956 s. `Cc1ccc(C)c(NC(=O)N2CCCC(C)(C(=O)NCc3ccccc3C)C2)c1` (stereo not given) yielded an RP-LC retention time of 1020 s. In turn, `O=C1CCCC2=C1C(c1ccccc1Cl)C1=C(CCCC1=O)O2` yielded an RP-LC retention time of 812 s. `Cc1nnc(-c2cccnc2N2CCN(C(=O)c3ccsc3)CC2)o1` yielded an RP-LC retention time of 675 s.

The molecule `CCCN1C(=O)C(CC(=O)NC2CCCC2)Sc2ncccc21` (stereo not given) returned an RP-LC retention time of 741 s. For `CC1(C)CN(C(=O)C2CC2)c2ccc(S(=O)(=O)N3CCN(c4ccccn4)CC3)cc21`, the RP-LC retention time came to 692 s. With `Cc1cccc(NC(=O)NCC(c2cccnc2)c2c[nH]c3ccccc23)c1C` (stereo not given), the RP-LC retention time amounted to 661 s.

In the case of `Cc1ccc2c(Nc3ccc4c(c3)OCCO4)c(C(=O)N3CCCC3)cnc2n1`, the RP-LC retention time stood at 592 s. To `Cc1cc(C(=O)N(CCn2nc(C)cc2C)c2nc3c(C(C)C)cccc3s2)on1` belongs 1200 s; to `Cc1ccc(-c2csc(NC(=O)COc3cc(C)ccc3C(C)C)n2)cc1`, 992 s; to `CCC(C)(C)NC(=O)Cn1ncc2c(N3CCN(c4ccccn4)CC3)ncnc21`, 587 s. For `CC(C)(C)c1ccc(CN2CCC(OC3CCN(C4CCCC4)C3=O)CC2)cc1` (stereo not given), the RP-LC retention time was determined as 758 s.

Turning to `CCN1CCCC(Cn2cc(COc3ccc4c(c3)CCC4)nn2)C1` (stereo not given), the RP-LC retention time stood at 679 s. To `COc1ccc(NC(=O)CSc2nc3nc(C)cc(C)n3n2)c(OC)c1` belongs 713 s; to `CCN1C(=O)COc2ccc(-c3csc(NC(=O)c4ccc(Br)cc4)n3)cc21`, 1080 s. `CCN1CCCCc2cc(C(=O)NCC(F)F)sc21`: the RP-LC retention time was 892 s. Molecule `COCCCNc1nc(-c2ccc(C(C)(C)C)cc2)nc2ccccc12` came in with an RP-LC retention time of 843 s. In turn, `CCC(=O)Nc1cnc2c(c1)CCC2` gave an RP-LC retention time of 491 s. Turning to `COc1ccc(-c2noc(-c3nc(C)no3)n2)cc1`, the RP-LC retention time was determined as 920 s.

Take `CC(NC(=O)C1CCN(Cc2cn(C)c3ccccc23)CC1)c1ccc(F)cc1` (stereo not given): the RP-LC retention time came to 699 s.

`O=C(Nc1ccc(Cl)cc1)C1(c2cccs2)CCOCC1` registered an RP-LC retention time of 976 s. For the molecule `Cc1cccc(-c2noc(Cc3nnc(-c4ccc(C)c(C)c4)o3)n2)c1`, the RP-LC retention time amounted to 1190 s. `CCCCOc1ccc(C(=O)N2CCN(c3cc(C)nc(N4CCCCC4)n3)CC2)cc1` came in with an RP-LC retention time of 816 s. `COc1cc(NS(=O)(=O)c2cc3n(c2)CCCN(C)C3=O)cc(OC)c1` came in with an RP-LC retention time of 672 s. To `CC1(C)SC2C(NC(=O)COc3ccccc3)C(=O)N2C1C(=O)O` (stereo not given) belongs 821 s; to `CCSc1nnc(-c2nn(C)c3c2CN(C(=O)c2ccccc2Cl)CC3)n1C`, 747 s. `O=C(c1ccn2c(-c3ccccc3Br)nnc2c1)N1CCN(c2ccccn2)CC1` yielded an RP-LC retention time of 555 s. `Cc1cc(C(=O)N2CCN(c3ccccc3Cl)CC2)nc2ccnn12` showed an RP-LC retention time of 875 s. Take `C=CCOC(=O)COc1ccc2c(=O)c(-c3ccc(Cl)cc3)coc2c1`: the RP-LC retention time worked out at 1020 s.

`CC(C)(C)C(=O)Nc1ccc(N2CCN(CCC#N)CC2)cc1C(=O)O` had an RP-LC retention time of 611 s. Molecule `Cc1ccc(N2C(=O)CCS2(=O)=O)cc1S(=O)(=O)Nc1cccc2cccnc12` registered an RP-LC retention time of 808 s.

The molecule `CC(C)NC(=O)C1CCN(c2nc3ccc(-c4cccs4)nc3s2)CC1` displayed an RP-LC retention time of 879 s. With `Cc1nc(C(=O)Nc2cccc(F)c2)c(C)n1C1CCN(S(C)(=O)=O)CC1`, the RP-LC retention time stood at 706 s. Consider `NC(=O)c1oc2ccccc2c1NC(=O)c1cc(=O)c2ccccc2o1`, for which the RP-LC retention time was 805 s. In the case of `COc1ccc(NC(=O)N2CCc3nc[nH]c3C2)cc1Cl`, the RP-LC retention time was 580 s. On to `CCCn1cc(C(=O)Nc2ccc(S(N)(=O)=O)cc2)c(=O)c2ccc(C)nc21`, for which the RP-LC retention time is 867 s. Turning to `COc1cccc(NC(=O)N2CCCC2c2nc(-c3cccc(C)c3)no2)c1` (stereo not given), the RP-LC retention time amounted to 877 s.

On to `Brc1ccc(OCc2nn3c(-c4ccccn4)nnc3s2)cc1`, for which the RP-LC retention time stood at 872 s.

Regarding `Cc1cccc(CN2C(=O)N(c3ccc(F)cc3)c3ncccc3S2(=O)=O)c1`, the RP-LC retention time stood at 1090 s. Turning to `COc1ccc(-n2c(=O)c(C(=O)NC3CCCCC3)c(O)c3cccnc32)cc1`, the RP-LC retention time is 1300 s. In turn, `CNC(=O)[C@@H]1CN(S(=O)(=O)c2cnc[nH]2)C[C@H]1c1n[nH]c(C)n1` displayed an RP-LC retention time of 530 s. As for `Cc1ccc(-c2cc3c(N4CCC(C(=O)NC5CCCCC5)CC4)nccn3n2)c(C)c1`, the RP-LC retention time amounted to 905 s. Consider `O=C(Cc1nnc(-c2ccc3ncccc3c2)o1)NCCc1ccc(Cl)cc1`, for which the RP-LC retention time was 733 s.

Turning to `Cc1nc2nc(-c3ccc(C(C)(C)C)cc3)nn2c(C)c1CC(=O)N1CCCC1`, the RP-LC retention time is 900 s. Molecule `CN(C)C(=O)c1csc(S(=O)(=O)N2CCC(C(=O)N3CCN(c4ccccc4)CC3)CC2)c1` displayed an RP-LC retention time of 768 s. `CC1CCN(c2ccc(-c3noc(CNC(=O)c4cccs4)n3)cc2)CC1` showed an RP-LC retention time of 993 s. To `Cc1nc(-c2csc(S(=O)(=O)N3CCC(C(=O)Nc4ccc(F)cc4F)CC3)c2)no1` belongs 920 s; to `CCc1ccccc1NC(=O)Cn1cnc2nc(N3CCCC(C(=O)NC)C3)sc2c1=O` (stereo not given), 646 s; to `CCOC(=O)c1c(S(=O)(=O)N2CCC(C(=O)Nc3cc(C)ccc3OC)CC2)c(C)n(C)c1C`, 936 s. In turn, `CCc1nc(-c2ccc3c(c2)CCN3C(=O)Cc2ccc(OC)c(OC)c2)no1` returned an RP-LC retention time of 923 s. As for `COc1cccc(NC(=O)Cn2c(C(C)C)nc3c(c2=O)CN(Cc2ccccc2)CC3)c1`, the RP-LC retention time was found to be 687 s. Next, `Cc1cc(C)n(-c2ccnc(N3CCC(C(=O)NCCN4CCCCC4)CC3)n2)n1`: 601 s; `COc1ccc(CC(=O)N2CCc3cc(-c4ccno4)ccc32)cc1`: 909 s. `Cc1ccc(S(=O)(=O)N2CCCC(CCC(=O)NC3CCCCC3)C2)cc1` (stereo not given) had an RP-LC retention time of 956 s. `CCCn1c(=O)c(N2CCC(NC(=O)Nc3ccc4c(c3)OCCO4)CC2)nc2ccccc21` displayed an RP-LC retention time of 933 s. `COCCNC(=O)C1CCc2sc(C(=O)N3CCCCCC3)cc2C1` (stereo not given) registered an RP-LC retention time of 682 s. The molecule `O=C(Nc1ccc(F)c(F)c1)C1CCCN(C(=O)Cc2cccc3ccccc23)C1` (stereo not given) gave an RP-LC retention time of 1020 s. Molecule `O=C1COc2ccc(S(=O)(=O)N3CCC(C(=O)NCc4cccs4)CC3)cc2N1` displayed an RP-LC retention time of 702 s. `COC(=O)C1=CN(c2ccc(F)cc2)c2cc(F)ccc2S1(=O)=O` showed an RP-LC retention time of 789 s.

Molecule `Cc1ccc2c(c1)C(C)(C)C(=O)N2CC(=O)N1CCCCC1` had an RP-LC retention time of 860 s. Consider `O=C(Cn1cccc1-c1nnc(-c2ccccc2)o1)N1CCC2(CC1)OCCO2`, for which the RP-LC retention time came to 834 s.

With `O=C(CN1CCN(Cc2ccc(F)cc2)C1=O)NCCc1ccncc1`, the RP-LC retention time was found to be 596 s.

On to `COc1ccc(CNC(=O)Cn2nc(C(=O)N3CCCC3)c3ccccc32)cc1`, for which the RP-LC retention time worked out at 773 s. Next, `Cc1ccccc1S(=O)(=O)Nc1ccc(C(=O)N2CCCC2C(=O)NCCC(C)C)cc1` (stereo not given): 807 s; `O=C1OC(=O)C2C3CCC(O3)C12` (stereo not given): 559 s. Next, `O=C(Nc1ccc(N2CCN(C3CCCC3)C2=O)nc1)c1ccccc1F`: 804 s; `COc1cccc2c1C(=O)c1c(O)c3c(c(O)c1C2=O)C[C@@](O)(C(C)=O)C[C@@H]3OC1CC(N(C)C)C(O)C(C)O1` (stereo not given in full): 666 s; `COc1ccc(OC)c(CNC(=O)c2cn3cccc(C)c3n2)c1`: 730 s.
